Laboratory results from patent US10266549B2, “ULK1 inhibitors and methods using same” (SALK INSTITUTE FOR BIOLOGICAL STUDIES, priority 2014, dated 2019).

Legend:
panel of 456 kinases = assay: DiscoveRx KINOMEscan competition binding assay; design: species or system human
Protocol: FIG. 7E: (top) The kinase selectivity profile for compound 14 was determined using the DiscoveRx KINOMEscan profiling service. Briefly, compound 14 was screened at a 1-μM dose for its ability to impair binding of a panel of 456 kinases to substrate in an in vitro binding assay. Scores for the primary screen hits are reported as a percent of the DMSO control (% Control). Lower scores reflect stronger inhibitory effects of compound 14 on the target kinase. Compound 14 was very selective, only inhibiting 8 kinases >95% and 19 kinases >90% when tested at 10 μM. (bottom) In vitro kinase assays were performed for selected kinases. These assays were performed in the presence of compound 14 in a dose-response manner to identify the IC50 value for compound 14 for each of these individual kinases. […] Of the remaining kinases, those kinases which IC50 value was less than what was identified from ULK2 are highlighted in brown.
(§1) Kinase inhibitor specificity profiling assays were first carried out using DiscoveRx KINOMEscan competition binding assay against a panel of 456 kinases (www dot discoverx dot corn) using 1 μM compound 14.
We next examined the specificity of compound 14 using the DiscoveRx KINOMEscan panel of 456 purified human kinases and subsequent competition binding assay.

endogenous ULK1 = endogenous ULK1 activity in MEFs: mobility shift of Beclin1 and Atg13; format: cell-based, mouse; settings: WT MEFs, 10 μM co-treatment, 1 hr
Protocol: FIG. 7D: WT or Ulk1/Ulk2 double knockout mouse embryonic fibroblasts (MEFs) were treated with fresh media (Dulbecco's modified Eagle medium [DMEM] containing 10% FBS) containing 1-μM INK128, 1-μM AZD8055, or DMSO or with starvation media (EBSS) in the presence or absence of 10 μM compound 14. Cellular lysates were isolated after 1 hr of treatment and immunoblotted with the indicated antibodies. Asterisk denotes non-specific band.
We next examined whether compound 14 inhibits endogenous ULK1 activity. To activate endogenous ULK1, we treated MEFs with either amino acid starvation media (Earle's balanced salt solution [EBSS]) or the mTOR ATP-competitive inhibitors INK128 or AZD8055. In WT MEFs, we observed a mobility shift in endogenous Beclin1 and Atg13 in response to EBSS starvation media or the mTOR catalytic inhibitors, which was abolished in Ulk1/2-deficient MEFs (FIG. 7D). […] In certain embodiments, the mobility shifts observed in endogenous Beclin1 and Atg13 induced by mTOR inhibitors and starvation media reflect phosphorylation of endogenous Beclin1/Atg13 by endogenous ULK1/2 as they only occur in WT but not Ulk1/2-deficient MEFs.

[1] = system: murine Kras p53 lung carcinoma cells; assay: AnnexinV apoptosis in Kras p53 lung carcinoma cells; format: cell-based; settings: selectively in the nutrient-starved state
Protocol: For flow cytometry analysis, cells were collected at the appropriate time point, washed once in PBS, trypsinized and pelleted. For Annexin V staining, cells were washed in 1× Annexin V buffer and treated as described by the Annexin V staining protocol (BD Pharmingen, San Diego, Calif.). Briefly, cells were resuspended in Annexin V buffer to a concentration of one million per mL, 100,000 cells were then stained with 5 μL of phycoerythrin (PE)-conjugated Annexin V antibody (BD Pharmingen, San Diego, Calif.) and 5 μL of 7-amino-actinomycin D (7AAD) and then incubated at room temperature for 15 minutes. 400 μL of Annexin V buffer was then added to each sample with gentle mixing. Stained cells were analyzed using a FACScan flow cytometer (Becton Dickinson, San Jose, Calif.). Flow cytometry data was analyzed using FlowJo 8.6 software (Tree Star Inc., Ashland, Oreg.).
There has been great interest in the role of autophagy in the survival of tumor cells, particular tumor cells faced with metabolic stress from chemotherapies or targeted therapeutics. We next examined whether compound 14 would promote apoptosis in tumor cells similar to the MEFs, selectively under conditions in which autophagy is actively engaged. […]

AuroraA kinase = AuroraA kinase (Homo sapiens (Human), UniProt O14965); assay: classic in vitro kinase assay, dose-response (Reaction Biology); format: biochemical; settings: dose-response curves
Sequence of AuroraA kinase (O14965 whole entry): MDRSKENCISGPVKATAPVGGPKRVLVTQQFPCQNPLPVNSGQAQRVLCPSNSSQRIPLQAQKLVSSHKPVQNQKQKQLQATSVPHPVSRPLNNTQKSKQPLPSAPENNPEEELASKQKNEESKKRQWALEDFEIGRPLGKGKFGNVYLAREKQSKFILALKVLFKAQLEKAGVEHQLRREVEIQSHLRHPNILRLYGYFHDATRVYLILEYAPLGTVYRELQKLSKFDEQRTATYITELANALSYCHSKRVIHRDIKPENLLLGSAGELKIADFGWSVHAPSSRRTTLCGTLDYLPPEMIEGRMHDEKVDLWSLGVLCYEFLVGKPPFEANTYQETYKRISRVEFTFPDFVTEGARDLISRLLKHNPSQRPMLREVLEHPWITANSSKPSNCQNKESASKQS
Protocol: as §1
(§2) To use a more well-established measure of the selectivity of compound 14 against its top binding kinases, we examined dose-response curves for its inhibition of these kinases in a classic in vitro kinase assays. Here we tested the ten kinases most suppressed by compound 14 by the ATP binding assay. […] It is important to note that even though compound 14 inhibits these 4 kinase quite equivalently across all of the different assays we have examined, this is still greater selectivity than all but a handful of widely used ATP-competitive kinases inhibitors widely used in clinical oncology today. We next examined the ability of compound 14 to suppress signaling downstream of various kinases in cells in culture. […] Similarly, compound 14 inhibited FAK and AuroraA comparably to ULK1 in MEFs as well.

FAK = FAK (Homo sapiens (Human), UniProt Q05397); assay: as above; format: biochemical; settings: dose-response curves
Sequence of FAK (Q05397 whole entry): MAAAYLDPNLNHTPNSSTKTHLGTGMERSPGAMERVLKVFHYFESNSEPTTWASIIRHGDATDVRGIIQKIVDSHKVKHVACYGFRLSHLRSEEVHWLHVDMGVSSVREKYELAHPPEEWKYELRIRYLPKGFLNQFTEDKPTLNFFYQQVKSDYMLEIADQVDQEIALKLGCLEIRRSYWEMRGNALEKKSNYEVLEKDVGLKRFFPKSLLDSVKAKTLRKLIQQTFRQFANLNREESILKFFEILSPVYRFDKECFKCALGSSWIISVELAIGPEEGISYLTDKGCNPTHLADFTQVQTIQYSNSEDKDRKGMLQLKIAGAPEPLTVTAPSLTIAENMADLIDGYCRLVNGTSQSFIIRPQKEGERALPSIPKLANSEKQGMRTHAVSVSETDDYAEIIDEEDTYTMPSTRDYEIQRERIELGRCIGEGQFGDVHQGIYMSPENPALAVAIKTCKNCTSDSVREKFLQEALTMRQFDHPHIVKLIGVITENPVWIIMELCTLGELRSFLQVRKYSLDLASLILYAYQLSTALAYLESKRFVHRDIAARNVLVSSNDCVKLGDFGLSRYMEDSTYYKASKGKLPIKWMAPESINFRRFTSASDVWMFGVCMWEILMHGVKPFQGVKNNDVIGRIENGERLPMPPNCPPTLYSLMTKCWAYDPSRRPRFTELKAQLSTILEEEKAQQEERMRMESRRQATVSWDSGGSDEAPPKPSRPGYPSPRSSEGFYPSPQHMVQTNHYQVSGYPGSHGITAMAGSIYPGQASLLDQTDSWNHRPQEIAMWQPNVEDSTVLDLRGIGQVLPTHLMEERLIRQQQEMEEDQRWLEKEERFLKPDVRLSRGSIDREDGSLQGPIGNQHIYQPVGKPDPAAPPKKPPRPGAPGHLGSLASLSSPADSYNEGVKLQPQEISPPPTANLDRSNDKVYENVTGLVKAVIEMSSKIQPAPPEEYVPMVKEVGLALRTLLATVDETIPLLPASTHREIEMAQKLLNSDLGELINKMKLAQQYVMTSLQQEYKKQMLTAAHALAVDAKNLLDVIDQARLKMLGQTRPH
Protocol: as §1, §2

JAK2 = JAK2 (Homo sapiens (Human), UniProt O60674); assay: as above; format: biochemical; settings: dose-response curves
Sequence of JAK2 (O60674 whole entry): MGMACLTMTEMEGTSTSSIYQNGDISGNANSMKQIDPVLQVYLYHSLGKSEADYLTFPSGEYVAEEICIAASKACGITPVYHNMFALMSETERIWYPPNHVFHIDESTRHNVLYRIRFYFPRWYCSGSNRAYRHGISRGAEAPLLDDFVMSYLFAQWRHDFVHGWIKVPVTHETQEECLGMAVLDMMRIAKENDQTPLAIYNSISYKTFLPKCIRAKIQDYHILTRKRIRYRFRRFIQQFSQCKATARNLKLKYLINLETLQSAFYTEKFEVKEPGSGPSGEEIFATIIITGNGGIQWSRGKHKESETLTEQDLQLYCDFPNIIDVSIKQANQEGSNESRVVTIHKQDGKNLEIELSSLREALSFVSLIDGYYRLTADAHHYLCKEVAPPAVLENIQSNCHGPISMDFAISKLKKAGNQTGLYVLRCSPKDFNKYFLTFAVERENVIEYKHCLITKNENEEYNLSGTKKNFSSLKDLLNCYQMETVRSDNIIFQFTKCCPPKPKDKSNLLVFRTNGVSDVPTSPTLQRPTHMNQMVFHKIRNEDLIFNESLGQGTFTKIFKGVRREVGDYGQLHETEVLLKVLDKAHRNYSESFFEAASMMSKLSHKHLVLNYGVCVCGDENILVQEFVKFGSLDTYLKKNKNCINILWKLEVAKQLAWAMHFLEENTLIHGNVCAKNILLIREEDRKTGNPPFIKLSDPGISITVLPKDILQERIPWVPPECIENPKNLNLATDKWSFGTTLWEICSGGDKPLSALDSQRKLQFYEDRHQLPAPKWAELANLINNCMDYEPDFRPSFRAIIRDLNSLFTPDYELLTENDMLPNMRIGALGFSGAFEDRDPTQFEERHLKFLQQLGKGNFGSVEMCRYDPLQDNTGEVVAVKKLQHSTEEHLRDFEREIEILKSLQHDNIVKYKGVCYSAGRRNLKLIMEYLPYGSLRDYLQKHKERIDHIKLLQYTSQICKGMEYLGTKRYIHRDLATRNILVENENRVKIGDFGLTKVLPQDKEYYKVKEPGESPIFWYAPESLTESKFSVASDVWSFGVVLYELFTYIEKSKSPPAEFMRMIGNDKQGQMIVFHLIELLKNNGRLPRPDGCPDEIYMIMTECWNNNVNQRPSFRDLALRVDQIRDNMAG
Protocol: as §1, §2

[2] = panel of 456 kinases, tested at 10 μM as printed (method says 1 μM)

## CNC(=O)c1ccccc1Nc1nc(Nc2cc(OC)c(OC)c(OC)c2)ncc1Br [compound 14, 2-(5-bromo-2-(3,4,5-trimethoxyphenylamino)pyrimidin-4-ylamino)-N-methylbenzamide]
Panel of 456 kinases; (number of non-mutant kinases with % Ctrl <35)/(number of non-mutant kinases tested)
  S(35) selectivity index: 0.123
Panel of 456 kinases; [2]
  number of kinases inhibited >90%: 19
  number of kinases inhibited >95%: 8
Endogenous ULK1
  EBSS and mTOR-inhibitor induced mobility shift in Beclin1 and Atg13: inhibited
[1]
  apoptosis (AnnexinV+ cells): promoted apoptosis
AuroraA kinase
  inhibition relative to ULK1: equivalently inhibited
FAK
  inhibition relative to ULK1: equivalently inhibited
JAK2
  inhibition relative to ULK1: equivalently inhibited
